In patent US4322528A (priority 1979, dated 1982):
Read-outs that look alike come from different tables or passages of the source.

Tests used:
Assay in all cases: whole plant or invertebrate
Housefly Larvae = details: Musca domestica, soil, 168 h
[1] = system: Parathion-resistant Two-spotted Spider Mite Egg; details: Tetranychus urticae, foliar, read-out: Parathion-resistant Two-spotted Spider Mite, Egg, % control @ ppm
Cabbage Looper Larvae = details: Trichoplusia ni, foliar, read-out: Cabbage Looper Larvae, Leaf Feed, % control @ ppm
Housefly Adult = details: Musca domestica, read-out: Housefly Adult, Contact Spray, % control @ ppm
Tobacco Budworm Larvae = details: Heliothis virescens, foliar, read-out: Tobacco Budworm Larvae, Leaf Feed, % control @ ppm
[2] = system: Hock Colorado Potato Beetle 2nd Stg. Larva; details: Leptinotarsa decemlineata, foliar, read-out: Hock Colorado Potato Beetle 2nd Stg. Larva, Leaf Feed, % control @ ppm
[3] = read-out: 7-Day Exposure Housefly Larvae Treatment, % control, C @ ppm (second sub-column)
[4] = read-out: 7-Day Exposure Housefly Larvae Treatment, % control @ ppm

SMILES	mortality at 40 ppm (Housefly Larvae; [3])	mortality at 40 ppm [1]	mortality at 500 ppm (Cabbage Looper Larvae)	mortality at 100 ppm (Housefly Adult)	mortality at 500 ppm (Tobacco Budworm Larvae)	mortality at 40 ppm (Housefly Larvae; [4])	mortality at 500 ppm [2]
CCOP(=S)(OCC)Oc1cc(C)nc(C(C)C)n1 [Diazinon, reference compound]	37%						
ClC1=NC(Cl)(Cl)C2(Cl)C3CC(C(Cl)C3Cl)C12Cl (centres unmarked) [Ex. 3, 4-aza-2,3,5,5,6,8,9-heptachlorotricyclo[5.2.1.0^2.6]dec-3-ene]	67%	31%	26%	83%			
ClC1=C(Cl)C2(Cl)C(c3ccccc3)CN1C2(Cl)Cl (centres unmarked) [Ex. 4, 1-aza-5-phenyl-2,3,4,7,7-pentachlorobicyclo[2.2.1]-2-heptene]		77%		10%	66%	43%	50%
ClC1=C(Cl)C2(Cl)C3c4ccccc4CC3N1C2(Cl)Cl (centres unmarked) [Ex. 5, 1-aza-4,5-benzo-7,8,9,10,10-pentachlorotricyclo[5.2.1.0^2.6]-8-decene]		13%		42%	6%	47%	
